Measurements reported in US8580517B2, “Biosensor and use thereof to identify therapeutic drug molecules and molecules binding orphan receptors” (priority 2003, dated 2013).
Entries after “also recorded” stand apart in the source; their conditions may differ.

Experiments:
Assay type in all cases: cell-based
[1] = biological target: T1, human serotonin receptors (Type 1A) (Homo sapiens, UniProt P08908); experiment: G protein biosensor FRET profile in biosensor cells expressing serotonin receptors
T1 construct: expressed in transfected cells; host or cells: Biosensor cells
T1 sequence (P08908 1-422): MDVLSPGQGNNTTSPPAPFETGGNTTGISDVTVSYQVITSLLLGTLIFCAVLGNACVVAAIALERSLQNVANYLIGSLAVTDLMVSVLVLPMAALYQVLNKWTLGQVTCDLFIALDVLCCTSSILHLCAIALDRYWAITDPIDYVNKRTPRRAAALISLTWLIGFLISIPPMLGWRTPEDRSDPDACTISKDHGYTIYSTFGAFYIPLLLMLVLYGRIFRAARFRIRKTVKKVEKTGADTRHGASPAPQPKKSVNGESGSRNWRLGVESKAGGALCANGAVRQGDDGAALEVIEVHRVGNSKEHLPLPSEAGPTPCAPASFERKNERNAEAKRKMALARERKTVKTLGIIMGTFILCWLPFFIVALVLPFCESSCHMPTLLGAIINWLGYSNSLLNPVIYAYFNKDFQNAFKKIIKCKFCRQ
Procedure: (§1) Microscopy, image acquisition and FRET analysis (i.e. image capture, recording and analysis) were carried out as follows (generally following the illustration in FIG. 3). Cells were seeded on glass coverslips (25 mm #1 from Warner Instruments) in 35 mm dishes and cultured overnight for imaging. Coverslips containing cells were mounted in a perfusion chamber of 0.36 ml internal volume (RC-21BR from Warner Instrument Corporation, 1141 Dixwell Ave., Hamden, Conn. 06514) containing Hank's Buffered Saline Solution (HBSS) supplemented with 10 mM Hepes pH 7.4 and 1 mg glucose/ml. The perfusion chamber was stage-mounted in an upright Zeiss Axioscope fluorescence microscope.
(§2) Agonists, antagonists or a molecule in the HBSS solution were injected manually (or using an automated valve based system driven pneumatically or by gravity) at a rate of about 2 ml/min for 45 seconds through a secondary inlet of the chamber. Images were acquired at the indicated times. Cells were illuminated with a 50 W mercury lamp (or a 100 W mercury lamp) through a 20% neutral density filter. The filter wheels were run by a Sutter Lambda 10-2 device, a high speed excitation filter wheel that utilizes a direct stepper motor. […]
(§3) Filters were used in combination with appropriate beam splitters in the filter cube. […] Average intensities in these regions were measured. […]

[2] = biological target: T2, M2 muscarinic acetylcholine receptors (Homo sapiens, UniProt P08172); experiment: G protein biosensor FRET (CY/CC) imaging in CHO cells stably expressing M2 receptor; conditions: for FRET signal intensity on addition of the molecule: 100 μM, α-CFP/β-YFPγ biosensor; for FRET signal intensity on repeated addition of agonist and antagonist: Go biosensor, same cell, repeated additions; for CC emission intensity / CY emission intensity: carbachol 100 μM, then atropine 100 μM
T2 construct: expressed in transfected cells
T2 sequence (P08172 1-466): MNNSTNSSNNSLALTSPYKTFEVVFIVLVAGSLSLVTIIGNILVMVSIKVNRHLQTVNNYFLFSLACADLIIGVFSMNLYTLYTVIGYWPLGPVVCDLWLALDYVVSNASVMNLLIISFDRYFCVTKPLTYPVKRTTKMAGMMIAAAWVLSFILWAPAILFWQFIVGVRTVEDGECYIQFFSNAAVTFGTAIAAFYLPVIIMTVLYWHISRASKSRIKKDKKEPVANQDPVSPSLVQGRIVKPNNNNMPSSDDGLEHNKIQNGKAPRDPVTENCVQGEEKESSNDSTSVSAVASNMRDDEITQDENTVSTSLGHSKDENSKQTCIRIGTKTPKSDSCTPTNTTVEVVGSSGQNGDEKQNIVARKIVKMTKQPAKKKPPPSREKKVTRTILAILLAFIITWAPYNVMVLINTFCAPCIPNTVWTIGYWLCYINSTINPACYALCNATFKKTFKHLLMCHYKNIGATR
Procedure: All were transferred to pDEST12.2 mammalian expression vectors following the manufacturer's instructions (Invitrogen). […] Competent CHO cells expressing M2 were competently transfected with three pDEST12.2 carrying αo-CFP, β1-YFP and γ5. Stable transfectants were selected with G418 and coexpressors were isolated by flow cytometry and confirmed by differential fluorescence microscopy.
as §1
Agonists, antagonists or a molecule in the HBSS solution were injected manually (or using an automated valve based system driven pneumatically or by gravity) at a rate of about 2 ml/min for 45 seconds through a secondary inlet of the chamber. Images were acquired at the indicated times. Cells were illuminated with a 50 W mercury lamp (or a 100 W mercury lamp) through a 20% neutral density filter. The filter wheels were run by a Sutter Lambda 10-2 device, a high speed excitation filter wheel that utilizes a direct stepper motor. (Sutter Instrument Company, 51 Digital Drive, Novato, Calif. 94949). In an aspect, power to operate instruments such as the microscope, pumps, motor(s), camera(s), computer(s) control system is supplied by 110 volt electric which is supplied to the instruments and turned on at the startup.
Filters were used in combination with appropriate beam splitters in the filter cube. For CC (cyan) images: D436/20 excitation (x), D480/40 emission (m) and 455DCLP beam splitter; for CY (FRET) images: D436/20x, D535/30m and 455DCLP beam splitter; for YY (yellow) images: the filters D500/20x, D535/30m and 515LP beam splitter. All filters were from Chroma. Images were acquired using a Hamamatsu CCD Orca-ER Camera with 4×4 binning. Exposure times were 1 sec for each CC or CY image. Images were acquired and captured of the FRET signal every 15 sec for a total of 4 or 6 minutes and stored as 12-bit gray scale image-stacks using MetaVue/Metamorph software (Universal Imaging Corporation, 402 Boot Road, Downington, Pa. 19335). Both camera and filter wheels were controlled peripherally using MetaVue from a Dell Computer Workstation (Dell Computer, Houston, Tex.) Images were processed using Metamorph (Universal Imaging) in a Dell Computer Workstation. […] Average intensities in these regions were measured. Maximum intensity per pixel in selected regions were ensured to be lower than the maximum value on the available 12-bit gray scale (4095). Ratios of the CY over CC intensities from these regions were plotted to obtain the FRET profiles.
Agonist concentration dependence of the decrease in the FRET signal: Images (emission spectra) of live functional biosensor cells were captured and recorded as above for about six minutes. […] The regression lines were drawn using GraphPad (Prizm). The percentage of activation by submaximal doses was determined by the formula 100(Rx−Ro)/(Rm−Ro). Rx, Ro and Rm are the numerical values of the respective regression lines at the 210 second elapsed time point where Ro was the initial baseline, Rx was the submaximal response and Rm was the maximal response.

[3] = biological target: T2, M2 muscarinic acetylcholine receptors; experiment: as above; conditions: biosensor with CFP tagged α, YFP tagged γ, untagged β subunit
[4] = test system: human adenosine receptors; experiment: G protein biosensor FRET profile in biosensor cells expressing adenosine receptor; conditions: 50 μM
Procedure: as §1, §2, §3

| SMILES | FRET signal intensity on addition of the molecule [2] | FRET signal intensity on repeated addition of agonist and antagonist [2] | CC emission intensity [2] | CY emission intensity [2] | further results |
| --- | --- | --- | --- | --- | --- |
| NCCc1c[nH]c2ccc(O)cc12 [serotonin] |  |  |  |  | FRET signal intensity on addition of agonist ([1]; 20 μM): decreased the FRET signal intensity significantly; also recorded: decrease in the FRET signal intensity |
| CC(C)(C)NCC(O)COc1cccc2[nH]c(C#N)cc12 (centres unmarked) [cyanopindolol] |  |  |  |  | FRET signal intensity on addition of antagonist after agonist ([1]; cyanopindolol 150 μM after serotonin 20 μM): increase in the FRET signal intensity |
| CC(C)NCC(O)c1ccc(O)c(O)c1 (centres unmarked) [Isoproterenol, isoproterenol] | no effect on FRET signal intensity |  |  |  |  |
| C[N+](C)(C)CCOC(N)=O [carbachol] | reduced FRET signal intensity; also recorded: FRET signal intensity decreases | decreases | CC emission intensity increases | CY emission intensity decreases | FRET signal intensity on addition of agonist [3]: decrease in FRET signal intensity |
| OC[C@H]1O[C@@H](n2cnc3c(NC4CCCCC4)ncnc32)[C@H](O)[C@@H]1O [adenosine N6-Cyclohexyl] |  |  |  |  | FRET signal intensity on addition of agonist [4]: decreased the FRET signal intensity significantly |
| CN1[C@@H]2CC[C@H]1C[C@@H](OC(=O)C(CO)c1ccccc1)C2 (some centres unmarked) [atropine] |  | increases | CC emission intensity decreases | increases | carbachol-induced loss of FRET after pretreatment with antagonist ([2]; atropine 10 μM present, carbachol 100 μM added): no longer elicited the loss of FRET; FRET signal intensity on addition of antagonist after agonist ([2]; atropine 100 μM after carbachol 100 μM): FRET signal intensity increases strikingly |
